Legend:
TGR7 [1] = target: T1, TGR7 (Homo sapiens, UniProt Q8TDS7); assay: Suppression of forskolin-increased intracellular cAMP level in TGR7-expressed CHO cells; assay type: cell-based; design: expressed in transfected cells; host or cells: CHO cells; conditions: 1 μM forskolin, ligand 1.0×10^−3 M-3.0×10^−7 M, compared to mock CHO cells (FIG. 6, FIG. 7)
Protocol: (§1) The TGR7- and rCB7T084-expressed CHO cells were washed with assay medium (HBSS (GibcoBRL) supplemented with 0.1% bovine serum albumin and 0.2 mM IBMX). Thereafter, the cells were incubated at 37° C. for 30 minutes under 5% CO2 conditions. β-Alanine (1.0×10^−3 M-3.0×10^−7 M) and L-carnosine (1.0×10^−3 M-3.0×10^−7 M) diluted with the assay medium in various concentrations were added and forskokin was then added thereto in 1 μM. The cells were incubated at 37° C. for 30 minutes under 5% CO2 conditions. The culture supernatant was discarded and the intracellular cAMP level was determined on a plate reader (ARVO multi-label counter, Wallac, Inc.), following the protocol of cAMP Screen Kit (Applied Biosystems, Inc.).

[2] = tested on: CHO-K1 cells into which the expression vector alone was introduced; conditions: control CHO-K1 cells, expression vector alone (no insert); FLIPR (FIG. 3)
Protocol: (§2) The CHO-K1 cell line was cultured in HAM F-12 medium (Invitrogen) containing 10% fetal calf serum (Invitrogen), unless otherwise indicated. A day before transfection, 4.5×10^5 cells per 10 cm^2 were plated, followed by incubation in a CO2 incubator adjusted to a concentration of 5% CO2 at 37° C. for at least 15 hours. Using Lipofectamine reagent (Invitrogen), transfection was carried out by modifications of the method attached to the reagent. When a 6-well plate was used for the incubation, the following procedures were performed. First, 2 tubes each having a 1.5 ml volume were prepared and 100 μl each of Opti-MEM medium (Invitrogen) was dispensed in each tube. Next, 1 μg of the expression vector was charged in one tube and in another tube, 6 μl of Lipofectamine reagent was charged, which were mixed together. The mixture was settled for 20 minutes at room temperature. To the solution, 800 μl of Opti-MEM medium was added and the resulting solution mixture for transfection was added to the CHO-K1 cells, which had been previously washed with Opti-MEM medium. Then, the cells were incubated in a CO2 incubator for 6 hours. After the incubation, the cells were rinsed with PBS (Invitrogen), then scraped using 0.05% trypsin-EDTA solution (Invitrogen) and recovered by centrifugal operation. The cells obtained were counted and diluted to 5×10^4 cells per 200 μl of the medium. The dilution was dispensed onto a Black walled 96-well plate (Costar) in 200 μl each per well, followed by incubation overnight in a CO2 incubator. Various test samples were added to the CHO-K1 cells in which the receptor was transiently expressed by the transfection operation described above, whereby changes in the intracellular calcium ion level were determined using FLIPR (Molecular Device). In order to determine the changes in the intracellular calcium ion level on FLIPR, the cells were pre-teated by the following procedures. […] Following the pre-treatment above, changes in intracellular calcium level after addition of various test samples were measured on FLIPR.

rat rCB7T084 = rat rCB7T084 (Rattus norvegicus, UniProt Q7TN41, R55S); conditions: β-alanine added in 10^−4 M to 10^−5 M; CHO-K1 cells expressing rat rCB7T084; FLIPR, Fluo-3AM (FIG. 2)
Protocol: as §2

TGR7 [3] = target: T1, TGR7; conditions: β-alanine added in 10^−4 M to 10^−5 M; CHO-K1 cells expressing human TGR7; FLIPR, Fluo-3AM (FIG. 1)
Protocol: as §2

rCB7T084 = target: T2, rCB7T084 (Rattus norvegicus, UniProt Q7TN41, R55S); assay: Suppression of forskolin-increased intracellular cAMP level in rCB7T084-expressed CHO cells; assay type: cell-based; conditions: 1 μM forskolin, ligand 1.0×10^−3 M-3.0×10^−7 M, compared to mock CHO cells (FIG. 6, FIG. 7)
T2 construct: expressed in transfected cells; host or cells: CHO cells
T2 sequence (Q7TN41 1-319 R55S): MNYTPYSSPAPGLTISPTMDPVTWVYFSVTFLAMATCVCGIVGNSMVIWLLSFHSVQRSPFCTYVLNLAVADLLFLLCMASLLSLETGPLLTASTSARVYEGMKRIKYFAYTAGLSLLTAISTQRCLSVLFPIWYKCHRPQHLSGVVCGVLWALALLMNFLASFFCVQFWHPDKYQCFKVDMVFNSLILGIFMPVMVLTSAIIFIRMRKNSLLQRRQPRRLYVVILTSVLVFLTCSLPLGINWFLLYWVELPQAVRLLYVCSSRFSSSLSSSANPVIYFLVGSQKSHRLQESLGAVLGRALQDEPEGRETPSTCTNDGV
Protocol: as §1

T1 sequence (Q8TDS7 whole entry): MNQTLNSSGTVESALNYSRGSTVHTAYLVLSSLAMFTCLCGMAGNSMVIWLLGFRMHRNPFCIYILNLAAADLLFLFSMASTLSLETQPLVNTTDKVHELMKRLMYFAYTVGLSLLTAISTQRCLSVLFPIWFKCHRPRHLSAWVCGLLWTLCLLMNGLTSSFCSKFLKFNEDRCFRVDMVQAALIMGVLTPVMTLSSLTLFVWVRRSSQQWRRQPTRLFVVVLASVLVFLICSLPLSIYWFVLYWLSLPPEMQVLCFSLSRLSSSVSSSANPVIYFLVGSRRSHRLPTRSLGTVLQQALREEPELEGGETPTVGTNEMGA

response (increase in the intracellular calcium level) (rat rCB7T084) | response (increase in the intracellular calcium level) (TGR7 [3]) | Compound | decrease of the intracellular cAMP level increased by forskolin addition (TGR7 [1]) | response (increase in the intracellular calcium level) [2] | decrease of the intracellular cAMP level increased by forskolin addition (rCB7T084)
specifically responsive | specifically responsive | NCCC(=O)O [β-alanine] | dose-dependent and specific decrease | such response was not observed | dose-dependent and specific decrease
 |  | NCCC(=O)N[C@@H](Cc1cnc[nH]1)C(=O)O [L-carnosine] | dose-dependent and specific decrease |  | dose-dependent and specific decrease

— US20060073516A1, “Novel screening method” (priority 2002, published 2006)
